Test results published in ChEMBL document CHEMBL5104192, “Late-Stage Functionalization with Cysteine Staples Generates Potent and Selective Melanocortin Receptor-1 Agonists” (J Med Chem, 2022).
*1 amine or outer side, *2 acyl side, *3 side chain or, on linkers, in order; H or OH if unused. Where a SMILES comes first, the peptide text is derived from it. Bridges are numbered along the chain shown (N, C = ends). [ ]: non-standard residue; d: D form. X2 = NCCOCCOCCNC(=O)OCC1C2CCc3c([*:1])nnc([*:2])c3CCC21; Maleimide(3,4-diyl) = O=C1NC(=O)C([*:2])=C1[*:1]; C6F4(1,4-diyl) = Fc1c(F)c([*:2])c(F)c(F)c1[*:1]; mXylylene = c1cc(C[*:1])cc(C[*:2])c1; oXylylene = c1ccc(C[*:2])c(C[*:1])c1; pXylylene = c1cc(C[*:2])ccc1C[*:1]; NMeR = CN[C@@H](CCCNC(=N)N)C(=O)O; CH2COCH2 = O=C(C[*:1])C[*:2]; X1 = n1nc([*:2])nnc1[*:1]; Nle = CCCC[C@H](N)C(=O)O

Assays:
[1] = target: T1, Melanocyte-stimulating hormone receptor (Homo sapiens, UniProt Q01726); experiment: Displacement of [125I]-NDP-alpha-MSH from human MC1R expressed in HEK2936E cell membrane measured after 16 to 23 hrs by 1450 microbeta trilux scintillation proximity assay; assay type: cell membranes
Melanocortin receptor 3 [2] = target: T2, Melanocortin receptor 3 (Homo sapiens, UniProt P41968); experiment: Displacement of [125I]-NDP-alpha-MSH from human MC3R expressed in HEK2936E cell membrane measured after 16 to 23 hrs by 1450 microbeta trilux scintillation proximity assay; assay type: cell membranes
Melanocortin receptor 4 [3] = target: T3, Melanocortin receptor 4 (Homo sapiens, UniProt P32245); experiment: Displacement of [125I]-NDP-alpha-MSH from human MC4R expressed in HEK2936E cell membrane measured after 16 to 23 hrs by 1450 microbeta trilux scintillation proximity assay; assay type: cell membranes
[4] = target: T1, Melanocyte-stimulating hormone receptor; experiment: Agonist activity at human MC1R expressed in HEK2936E cells assessed as cAMP production in presence of IBMX by time resolved fluorescence assay; assay type: functional, cell-based
Melanocortin receptor 3 [5] = target: T2, Melanocortin receptor 3; experiment: Agonist activity at human MC3R expressed in HEK2936E cells assessed as cAMP production in presence of IBMX by time resolved fluorescence assay; assay type: functional, cell-based
Melanocortin receptor 4 [6] = target: T3, Melanocortin receptor 4; experiment: Agonist activity at human MC4R expressed in HEK2936E cells assessed as cAMP production in presence of IBMX by time resolved fluorescence assay; assay type: functional, cell-based
Homo sapiens [7] = species: Homo sapiens; experiment: Selectivity ratio of Ki for human MC3R to Ki for human MC1R
Homo sapiens [8] = species: Homo sapiens; experiment: Selectivity ratio of Ki for human MC4R to Ki for human MC1R
Homo sapiens [9] = species: Homo sapiens; experiment: Selectivity ratio of EC50 for human MC3R to EC50 for human MC1R
Homo sapiens [10] = species: Homo sapiens; experiment: Selectivity ratio of EC50 for human MC4R to EC50 for human MC1R

T3 sequence (P32245 whole entry): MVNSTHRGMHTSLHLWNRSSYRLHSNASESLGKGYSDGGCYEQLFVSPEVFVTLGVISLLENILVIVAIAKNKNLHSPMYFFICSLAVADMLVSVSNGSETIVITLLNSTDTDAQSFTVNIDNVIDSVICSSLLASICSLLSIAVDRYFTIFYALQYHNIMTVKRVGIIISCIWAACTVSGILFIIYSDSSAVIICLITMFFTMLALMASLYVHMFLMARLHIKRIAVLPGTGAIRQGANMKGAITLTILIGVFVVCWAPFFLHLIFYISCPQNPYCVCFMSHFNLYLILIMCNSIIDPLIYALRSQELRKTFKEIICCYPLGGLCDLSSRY
T2 sequence (P41968 whole entry): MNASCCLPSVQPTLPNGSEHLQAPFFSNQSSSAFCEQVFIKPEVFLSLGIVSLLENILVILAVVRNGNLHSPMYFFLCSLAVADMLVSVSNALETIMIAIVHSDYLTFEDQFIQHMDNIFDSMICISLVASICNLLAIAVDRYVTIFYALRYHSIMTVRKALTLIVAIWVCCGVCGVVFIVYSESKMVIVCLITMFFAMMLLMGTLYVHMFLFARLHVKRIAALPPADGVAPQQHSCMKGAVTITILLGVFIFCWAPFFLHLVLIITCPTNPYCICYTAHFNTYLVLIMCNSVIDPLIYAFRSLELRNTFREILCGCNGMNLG
T1 sequence (Q01726 whole entry): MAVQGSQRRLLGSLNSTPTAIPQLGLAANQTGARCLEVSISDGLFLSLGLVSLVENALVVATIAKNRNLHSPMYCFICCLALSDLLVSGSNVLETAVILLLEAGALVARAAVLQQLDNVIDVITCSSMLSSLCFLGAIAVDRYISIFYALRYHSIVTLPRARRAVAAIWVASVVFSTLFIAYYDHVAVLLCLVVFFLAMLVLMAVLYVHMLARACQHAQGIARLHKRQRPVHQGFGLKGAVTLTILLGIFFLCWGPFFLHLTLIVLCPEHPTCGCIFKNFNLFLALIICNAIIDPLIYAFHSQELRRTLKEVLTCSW

SMILES	Ki [1] [nM]	Ki (Melanocortin receptor 3 [2]) [nM]	Ki (Melanocortin receptor 4 [3]) [nM]	EC50 ([4]; read-out: pEC50 (converted)) [nM]	EC50 (Melanocortin receptor 3 [5]) [nM]	EC50 (Melanocortin receptor 4 [6]) [nM]	Ratio Ki (Homo sapiens [7])	Ratio Ki (Homo sapiens [8])	Ratio EC50 (Homo sapiens [9])	Ratio EC50 (Homo sapiens [10])	EC50 ([4]; read-out: EC50) [nM]
CC[C@H](C)[C@@H]1NC(=O)[C@@H]2CCCN2C(=O)[C@H](Cc2c[nH]c3ccccc23)NC(=O)[C@H](CCCNC(=N)N)N(C)C(=O)[C@H](Cc2ccccc2)NC(=O)[C@H](Cc2cnc[nH]2)NC(=O)[C@H]([C@@H](C)O)NC(=O)[C@@H](NC(C)=O)CSSC[C@@H](C(N)=O)NC1=O (Ac-CTHF[NMeR]WPIC-NH2; disulfide 1-9)	195	3980	347	8.71	39.8	60.3	20	2	5	7	–
CC[C@H](C)[C@@H]1NC(=O)[C@@H]2CCCN2C(=O)[C@H](Cc2c[nH]c3ccccc23)NC(=O)[C@H](CCCNC(=N)N)N(C)C(=O)[C@H](Cc2ccccc2)NC(=O)[C@H](Cc2cnc[nH]2)NC(=O)[C@H]([C@@H](C)O)NC(=O)[C@@H](NC(C)=O)CSCc2cccc(c2)CSC[C@@H](C(N)=O)NC1=O (Ac-CTHF[NMeR]WPIC-NH2; linker 1-9 via mXylylene)	110	9120	1290	2.95	195	302	83	12	66	103	–
CC[C@H](C)[C@@H]1NC(=O)[C@@H]2CCCN2C(=O)[C@H](Cc2c[nH]c3ccccc23)NC(=O)[C@H](CCCNC(=N)N)N(C)C(=O)[C@H](Cc2ccccc2)NC(=O)[C@H](Cc2cnc[nH]2)NC(=O)[C@H]([C@@H](C)O)NC(=O)[C@@H](NC(C)=O)CSCc2ccccc2CSC[C@@H](C(N)=O)NC1=O (Ac-CTHF[NMeR]WPIC-NH2; linker 1-9 via oXylylene)	64.6	12300	2140	1.86	295	398	191	33	58	212	–
CC[C@H](C)[C@@H]1NC(=O)[C@@H]2CCCN2C(=O)[C@H](Cc2c[nH]c3ccccc23)NC(=O)[C@H](CCCNC(=N)N)N(C)C(=O)[C@H](Cc2ccccc2)NC(=O)[C@H](Cc2cnc[nH]2)NC(=O)[C@H]([C@@H](C)O)NC(=O)[C@@H](NC(C)=O)CSCc2ccc(cc2)CSC[C@@H](C(N)=O)NC1=O (Ac-CTHF[NMeR]WPIC-NH2; linker 1-9 via pXylylene)	112	9770	759	5.13	162	309	87	7	32	60	–
CCCC[C@@H]1NC(=O)[C@@H]2CSSC[C@H](NC(=O)[C@H](CCCNC(=N)N)NC(=O)[C@H](CC(=O)O)NC(=O)[C@H](Cc3c[nH]c4ccccc34)NC(=O)[C@H](CCCNC(=N)N)NC(=O)[C@H](Cc3ccccc3)NC(=O)[C@H](Cc3cnc[nH]3)NC(=O)CNC1=O)C(=O)N[C@@H](Cc1cnc[nH]1)C(=O)N[C@@H](Cc1ccccc1)C(=O)N[C@@H](CCCNC(=N)N)C(=O)N[C@@H](Cc1c[nH]c3ccccc13)C(=O)N[C@@H](CCCNC(=N)N)C(=O)N2 (cyclo(CHFRWRC[Nle]GHFRWDR); disulfide 1-7)	3.31	20.9	81.3	0.339	0.229	8.13	6	25	1	35	–
CCCC[C@@H]1NC(=O)[C@@H]2CSc3c(F)c(F)c(c(F)c3F)SC[C@H](NC(=O)[C@H](CCCNC(=N)N)NC(=O)[C@H](CC(=O)O)NC(=O)[C@H](Cc3c[nH]c4ccccc34)NC(=O)[C@H](CCCNC(=N)N)NC(=O)[C@H](Cc3ccccc3)NC(=O)[C@H](Cc3cnc[nH]3)NC(=O)CNC1=O)C(=O)N[C@@H](Cc1cnc[nH]1)C(=O)N[C@@H](Cc1ccccc1)C(=O)N[C@@H](CCCNC(=N)N)C(=O)N[C@@H](Cc1c[nH]c3ccccc13)C(=O)N[C@@H](CCCNC(=N)N)C(=O)N2 (cyclo(CHFRWRC[Nle]GHFRWDR); linker 1-7 via C6F4(1,4-diyl))	0.794	11.7	45.7	0.123	0.275	3.55	15	58	2	29	–
CCCC[C@@H]1NC(=O)[C@@H]2CSCC(=O)CSC[C@H](NC(=O)[C@H](CCCNC(=N)N)NC(=O)[C@H](CC(=O)O)NC(=O)[C@H](Cc3c[nH]c4ccccc34)NC(=O)[C@H](CCCNC(=N)N)NC(=O)[C@H](Cc3ccccc3)NC(=O)[C@H](Cc3cnc[nH]3)NC(=O)CNC1=O)C(=O)N[C@@H](Cc1cnc[nH]1)C(=O)N[C@@H](Cc1ccccc1)C(=O)N[C@@H](CCCNC(=N)N)C(=O)N[C@@H](Cc1c[nH]c3ccccc13)C(=O)N[C@@H](CCCNC(=N)N)C(=O)N2 (cyclo(CHFRWRC[Nle]GHFRWDR); linker 1-7 via CH2COCH2)	2.09	23.4	43.7	0.55	0.692	7.24	11	21	1	13	–
CCCC[C@@H]1NC(=O)[C@@H]2CSC3=C(SC[C@H](NC(=O)[C@H](CCCNC(=N)N)NC(=O)[C@H](CC(=O)O)NC(=O)[C@H](Cc4c[nH]c5ccccc45)NC(=O)[C@H](CCCNC(=N)N)NC(=O)[C@H](Cc4ccccc4)NC(=O)[C@H](Cc4cnc[nH]4)NC(=O)CNC1=O)C(=O)N[C@@H](Cc1cnc[nH]1)C(=O)N[C@@H](Cc1ccccc1)C(=O)N[C@@H](CCCNC(=N)N)C(=O)N[C@@H](Cc1c[nH]c4ccccc14)C(=O)N[C@@H](CCCNC(=N)N)C(=O)N2)C(=O)NC3=O (cyclo(CHFRWRC[Nle]GHFRWDR); linker 1-7 via Maleimide(3,4-diyl))	3.63	28.2	81.3	0.288	0.398	5.01	8	22	1	17	–
CCCC[C@@H]1NC(=O)[C@@H]2CSc3nnc(nn3)SC[C@H](NC(=O)[C@H](CCCNC(=N)N)NC(=O)[C@H](CC(=O)O)NC(=O)[C@H](Cc3c[nH]c4ccccc34)NC(=O)[C@H](CCCNC(=N)N)NC(=O)[C@H](Cc3ccccc3)NC(=O)[C@H](Cc3cnc[nH]3)NC(=O)CNC1=O)C(=O)N[C@@H](Cc1cnc[nH]1)C(=O)N[C@@H](Cc1ccccc1)C(=O)N[C@@H](CCCNC(=N)N)C(=O)N[C@@H](Cc1c[nH]c3ccccc13)C(=O)N[C@@H](CCCNC(=N)N)C(=O)N2 (cyclo(CHFRWRC[Nle]GHFRWDR); linker 1-7 via X1)	0.724	11	33.9	0.0447	0.182	1.78	15	47	4	40	0.004
CCCC[C@@H]1NC(=O)[C@@H]2CSc3nnc(c4c3CCC3C(CC4)C3COC(=O)NCCOCCOCCN)SC[C@H](NC(=O)[C@H](CCCNC(=N)N)NC(=O)[C@H](CC(=O)O)NC(=O)[C@H](Cc3c[nH]c4ccccc34)NC(=O)[C@H](CCCNC(=N)N)NC(=O)[C@H](Cc3ccccc3)NC(=O)[C@H](Cc3cnc[nH]3)NC(=O)CNC1=O)C(=O)N[C@@H](Cc1cnc[nH]1)C(=O)N[C@@H](Cc1ccccc1)C(=O)N[C@@H](CCCNC(=N)N)C(=O)N[C@@H](Cc1c[nH]c3ccccc13)C(=O)N[C@@H](CCCNC(=N)N)C(=O)N2 (some centres not stated) (cyclo(CHFRWRC[Nle]GHFRWDR); linker 1-7 via X2)	0.0575	5.13	20	< 0.00912	0.107	1.12	89	347	12	123	< 0.009
